Experimental data published in patent publication US20260092054A1, “FUSED RING COMPOUND AND PHARMACEUTICAL CONTAINING SAME” (KAKEN PHARMACEUTICAL CO., LTD., priority 2022, published 2026).

Tests used:
[1] = test system: human STAT6; experiment: Human STAT6 dependent reporter activity (IL-4 stimulated STAT6 reporter assay using STAT6-HEK293 cells); format: cell-based; details: Homo sapiens, IL-4 stimulation, luciferase activity, read-out: Inhibition rate (%); for inhibition at 0.1 µM: compound 0.1 μmol/L; for inhibition at 1 µM: compound 1 μmol/L
[2] = target: T1, human STAT6/pIL-4Rα (Homo sapiens, UniProt P42226); experiment: Binding inhibitory activity between human STAT6/pIL-4Rα by fluorescence polarization method; details: rhSTAT6 (123-658) / FAM-pIL-4Rα peptide
T1 construct: histidine tag
T1 sequence (P42226 123-658): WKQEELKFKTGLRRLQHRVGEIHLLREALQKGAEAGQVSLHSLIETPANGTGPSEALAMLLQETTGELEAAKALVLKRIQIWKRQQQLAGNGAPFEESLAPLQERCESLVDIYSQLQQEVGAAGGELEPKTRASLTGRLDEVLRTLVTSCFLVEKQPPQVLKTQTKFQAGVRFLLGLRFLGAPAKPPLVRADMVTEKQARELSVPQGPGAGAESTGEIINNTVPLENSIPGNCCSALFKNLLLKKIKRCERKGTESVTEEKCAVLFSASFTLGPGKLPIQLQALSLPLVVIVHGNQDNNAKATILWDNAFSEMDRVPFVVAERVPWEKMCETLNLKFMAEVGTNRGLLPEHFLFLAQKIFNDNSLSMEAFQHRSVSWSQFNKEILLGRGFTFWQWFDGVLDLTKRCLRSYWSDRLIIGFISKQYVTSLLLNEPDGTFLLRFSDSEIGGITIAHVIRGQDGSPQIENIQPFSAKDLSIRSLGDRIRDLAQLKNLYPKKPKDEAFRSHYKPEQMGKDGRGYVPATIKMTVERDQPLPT
Procedure, shortened: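 His-tagged human STAT6 (residues 123–658, E. coli-expressed) was preincubated with compound for 30 min at RT in the dark, in buffer e.g. 50 mM NaCl, 10 mM HEPES pH 7.0, 1 mM DTT, 1 mM EDTA, 0.01% NP-40. FAM-pIL-4Rα peptide was then added for 30 min. Fluorescence polarisation was read at 485/535 nm, with IC50 interpolated linearly between two points flanking 50%.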

| SMILES | IC50 [2] [nM] | inhibition at 0.1 µM [1] [%] | inhibition at 1 µM [1] [%] |
| --- | --- | --- | --- |
| CCn1c(-c2ccc(-n3c(C)nn(C)c3=O)cc2)cc2ccnc(C(=O)Nc3cccc(C(=O)NCC#N)c3F)c21 [Ex. 190] | 410 | 66 | 97 |
| CCn1c(-c2ccc(-n3c(C)nn(C)c3=O)cc2)cc2ccnc(C(=O)Nc3ccc(F)c(C(=O)Nc4cn(C)c(=O)n(C)c4=O)c3)c21 [Ex. 191] | 290 | 63 | – |
| CCn1c(-c2ccc(-n3c(C)nn(C)c3=O)cc2)cc2ccnc(C(=O)Nc3ccc(F)c(C(=O)Nc4cncn(C)c4=O)c3)c21 [Ex. 192] | 340 | 71 | – |
| CCn1c(-c2ccc(-n3c(C)nn(C)c3=O)cc2)cc2ccnc(C(=O)Nc3cccc(C(=O)Nc4cncn(C)c4=O)c3F)c21 [Ex. 193] | 420 | 67 | 98 |
| CCn1c(-c2ccc(-n3c(C)nn(C)c3=O)cc2)cc2ccnc(C(=O)Nc3ccc(F)c(C(=O)Nc4cc(C)cn(C)c4=O)c3)c21 [Ex. 194] | 420 | 68 | 98 |
| CCn1c(-c2ccc(-n3c(C)nn(C)c3=O)cc2)cc2ccnc(C(=O)Nc3ccc(F)c(C(=O)Nc4ccc(C)n(C)c4=O)c3)c21 [Ex. 195] | 290 | 56 | – |
| COCCn1c(-c2ccc(-n3c(C)nn(C)c3=O)cc2)cc2ccnc(C(=O)Nc3cccc(C(=O)Nc4cccc(OC)n4)c3)c21 [Ex. 197] | 250 | 73 | – |
| COCCn1c(-c2ccc(-n3c(C)nn(C)c3=O)cc2)cc2ccnc(C(=O)Nc3cccc(C(=O)Nc4cc(Cl)n(C)n4)c3)c21 [Ex. 202] | 340 | 95 | – |
| CCn1c(-c2ccc(-n3c(C)nn(C)c3=O)cc2)cc2cncc(C(=O)Nc3ccc(F)c(C(N)=O)c3)c21 [Ex. 216] | 430 | 7 | 42 |
| CCn1c(-c2ccc(N3C(=O)C(C)CC3C)cc2)nc2cc(C(F)(F)F)cc(C(=O)Nc3cccc(C(N)=O)c3F)c21 (stereo not drawn) [Ex. 218] | 680 | 38 | 89 |

Second part, led by results:

| IC50 [2] [nM] | SMILES | inhibition at 0.1 µM [1] [%] | inhibition at 1 µM [1] [%] |
| --- | --- | --- | --- |
| 320 | CCn1c(-c2ccc(-n3c(C)nn(C)c3=O)cc2)cc2ccnc(C(=O)Nc3cccc(C(=O)Nc4c(C)ccn(C)c4=O)c3)c21 [Ex. 188] | 44 | 97 |
| 380 | CCn1c(-c2ccc(-n3c(C)nn(C)c3=O)cc2)cc2ccnc(C(=O)Nc3cccc(C(=O)NCC#N)c3)c21 [Ex. 189] | 72 | 97 |
| 270 | COCCn1c(-c2ccc(-n3c(C)nn(C)c3=O)cc2)cc2ccnc(C(=O)Nc3cccc(C(=O)Nc4cccn(C)c4=O)c3)c21 [Ex. 196] | 81 | – |
| 410 | CCn1c(-c2ccc(-n3c(C)nn(C)c3=O)cc2)cc2ccnc(C(=O)Nc3cccc(C(=O)Nc4cc(Cl)n(C)n4)c3)c21 [Ex. 198] | 96 | – |
| 270 | Cc1nn(C)c(=O)n1-c1ccc(-c2cc3ccnc(C(=O)Nc4cccc(C(=O)Nc5cccn(C)c5=O)c4)c3n2CC2CC2)cc1 [Ex. 199] | 67 | – |
| 230 | Cc1nn(C)c(=O)n1-c1ccc(-c2cc3ccnc(C(=O)Nc4cccc(C(=O)Nc5cccn(C)c5=O)c4)c3n2CC2(C#N)CC2)cc1 [Ex. 200] | 53 | 99 |
| 310 | CCn1c(-c2ccc(-n3c(C)nn(C)c3=O)cc2)cc2ccnc(C(=O)Nc3cccc(C(=O)Nc4ccn(C)n4)c3)c21 [Ex. 201] | 99 | – |
